Measured values published in article PMC10288505, “Photoswitchable Calixarene Activators for Controlled Peptide Transport across Lipid Membranes” (Journal of the American Chemical Society, 2023).

Tests used:
R8 = assay: Indicator displacement assay with host:LCG reporter pair, guest R8; type: binding; details: association constant, competitive dye displacement with LCG, 5 mM phosphate buffer pH 7.3; only the lower limit can be estimated
Description: The binding affinity of the anionic calixarene activators toward cationic peptides was investigated using a small library of highly hydrophilic oligoarginines, from 3 to 8 residues. These peptides are not able to spontaneously transverse zwitterionic artificial membranes in vesicle assays, which allows the accurate evaluation of the calixarenes 1 and 2 as counterion activators without interferences from the transport of the peptide alone.[43]−[45] First, the formation of host–guest complexes between 1/2 and the selected peptides was verified by indicator displacement assays using lucigenin (LCG) as the fluorescent indicator.[46] As previously reported for other sulfonatocalixarene derivatives,[46] the formation of host–guest binding pairs between calixarenes 1/2 in the E- and Z-forms and LCG results in significant static fluorescence quenching (see Figure 2A and Figures S26 and S27). Quantitative analysis of the fluorescence titration data using a 1:1 host:guest binding model allows the determination of the respective binding constants (K) reported in Table 1. As can be observed, both 1/2 display high affinity for the LCG dye, on the 10^7 M^–1 range, which seems to be independent of the nature and conformation of the azobenzene arm. […] The host:LCG binding pairs were then employed in the above-mentioned indicator displacement assays to investigate the binding affinity of oligoarginines toward 1 and 2 (see Figure 2B and Figures S29–S33).
The binding affinities of the counterion activators and peptide complexes were analyzed by indicator displacement assays. […] Firstly, the affinity for LCG was calculated for each of the activators, by titrations followed by fluorescence spectroscopy leading to almost full quenching of the emission. […]
Figure S26 - Fluorescence titration of the lucigenin dye with increasing concentrations of A) E-1 and B) Z–1 in water (5 mM phosphate buffer pH 7.3). […]

HeLa cells = assay: MTT viability assay; type: cell-based; details: 24 h of incubation, 4-parameters logistic fit, triplicate, read-out: IC50 cytotoxicity
Description: Success in artificial vesicle assays encouraged us to conduct transport experiments of fluorescently labeled peptides in living cells (Figure 5). We first employed confocal fluorescence microscopy to evaluate counterion activator 2 for the intracellular transport of a carboxytetramethylrhodamine-labeled R8 peptide (TAMRA-R8) into the cytosol of HeLa cells. Cationic peptides usually remain trapped inside the endosomes when incubated with cells at low μM concentrations.[32],[44] […] The cytometry experiments validated the E isomer selective transport and indicated a four-fold intracellular delivery enhancement (Figure 5C and Figure S52). […]
measured on a Guava easyCyte BG HT collecting the emission at 583/26 nm (Yellow-G channel), using InCyte v3.2 (GuavaSoft, Millipore). Cells with typical FSC and SSC parameters were selected and the mean fluorescence intensity was calculated for each sample. Each condition was measured in quadruplicate. […]
Afterwards, samples were removed and replaced with 100 µL of fresh complete DMEM supplemented with 0.5 mg/mL MTT. […] The absorbance at 570 nm was measured with a plate reader (Tecan Infinite F200Pro) and the data normalized to the value of untreated cells (100% viability), after blank subtraction (cells previously treated with Triton X-100). Each condition was measured in triplicate. […]

Row | Compound | Apparent affinity constant K for R8 (R8) | IC50 (HeLa cells) [µM]
1 | CCCCc1ccc(/N=N/c2ccc(OCCCOc3c4cc(S(=O)(=O)[O-])cc3Cc3cc(S(=O)(=O)[O-])cc(c3O)Cc3cc(S(=O)(=O)[O-])cc(c3O)Cc3cc(S(=O)(=O)[O-])cc(c3O)C4)cc2)cc1.[Li+].[Li+].[Li+].[Li+] [E-2] | >5 × 10^8 ^a M^–1 | 16.9
2 | CCCCc1ccc(/N=N\c2ccc(OCCCOc3c4cc(S(=O)(=O)[O-])cc3Cc3cc(S(=O)(=O)[O-])cc(c3O)Cc3cc(S(=O)(=O)[O-])cc(c3O)Cc3cc(S(=O)(=O)[O-])cc(c3O)C4)cc2)cc1.[Li+].[Li+].[Li+].[Li+] [Z-2] | – | 19.2
3 | O=S(=O)([O-])c1cc2c(O)c(c1)Cc1cc(S(=O)(=O)[O-])cc(c1O)Cc1cc(S(=O)(=O)[O-])cc(c1OCCCCCCOc1ccc(/N=N/c3ccccc3)cc1)Cc1cc(S(=O)(=O)[O-])cc(c1O)C2.[Li+].[Li+].[Li+].[Li+] [E-1] | >5 × 10^8 ^a M^–1 | –
